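96-well plates; 48 h exposure; 5 concentrations. Endpoints by linear interpolation between flanking doses. Not reached: highest tested concentration assigned. At the GI50, growth is halved.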 Calls of active or inactive are those of the source. Cut-off read from the data, not from the text of the source: active = GI50 up to about 1.1 µM and inactive = higher.
Assays:
Experiment in all cases: NCI tumour cell line growth inhibition, 48 h
PC-3 = system: PC-3
HT-29 = system: HT-29
HCT-116 = system: HCT-116
HCC 2998 = system: HCC 2998
NCI-H226 = system: NCI-H226
COLO 205 = system: COLO 205
SK-MEL-2 = system: SK-MEL-2
IGROV-1 = system: IGROV-1
Malme-3M = system: Malme-3M
SW-620 = system: SW-620
MCF7 = system: MCF7
MDA-N = system: MDA-N
SK-MEL-28 = system: SK-MEL-28
CCRF-CEM = system: CCRF-CEM
A498 = system: A498
CAKI-1 = system: CAKI-1
SF-268 = system: SF-268
BT-549 = system: BT-549
SR = system: SR
K562 = system: K562

Row | SMILES | GI50 (PC-3) | GI50 (HT-29) | GI50 (HCT-116) | GI50 (HCC 2998) | GI50 (NCI-H226) | GI50 (COLO 205) | GI50 (SK-MEL-2) | GI50 (IGROV-1) | GI50 (Malme-3M) | GI50 (SW-620) | GI50 (MCF7) | GI50 (MDA-N) | GI50 (SK-MEL-28) | GI50 (CCRF-CEM) | GI50 (A498) | GI50 (CAKI-1) | GI50 (SF-268) | GI50 (BT-549) | GI50 (SR) | GI50 (K562)
1 | Cc1cccc2sc(NC(=O)NS(=O)(=O)n3cnc4ccccc43)nc12 | 28.6 µM (inactive) | 33.9 µM (inactive) | 28.1 µM (inactive) | 15.6 µM (inactive) | 59 µM (inactive) | 27.8 µM (inactive) | 18.7 µM (inactive) | 16.5 µM (inactive) | 25.2 µM (inactive) | 28.4 µM (inactive) | 16.1 µM (inactive) | 31.3 µM (inactive) | 35.9 µM (inactive) | 76.6 µM (inactive) | 25.5 µM (inactive) | 34.7 µM (inactive) | 28.5 µM (inactive) | 23.3 µM (inactive) | – | –
2 | CC(C)(C)OC(=O)N(CCCCNC(=O)C(F)(F)F)CCCNC(=O)C(F)(F)F | > 100 µM (inactive) | > 100 µM (inactive) | > 100 µM (inactive) | > 100 µM (inactive) | > 100 µM (inactive) | > 100 µM (inactive) | > 100 µM (inactive) | > 100 µM (inactive) | – | > 100 µM (inactive) | > 100 µM (inactive) | – | > 100 µM (inactive) | > 100 µM (inactive) | > 100 µM (inactive) | > 100 µM (inactive) | > 100 µM (inactive) | > 100 µM (inactive) | > 100 µM (inactive) | > 100 µM (inactive)
3 | COCC([C@@H](O)C(O)C(=O)NCC[C@@H](C)c1nc(/C=C/CC2OC3(C[C@H](O)C2C)OC(C(C[C@H](O)C(C)[C@H](O)C(C)/C=C(C)/C(C)=C/C=C/C(C)=C/C#N)OC)[C@@H](OP(=O)(O)O)C3(C)C)co1)N(C)C (stereo not given in full) | 0.000179 µM (active) | 0.000162 µM (active) | 0.000177 µM (active) | 0.000185 µM (active) | 0.00015 µM (active) | 0.000171 µM (active) | 0.000188 µM (active) | 0.000161 µM (active) | 0.000174 µM (active) | 0.000182 µM (active) | 0.000184 µM (active) | 0.000191 µM (active) | 0.000184 µM (active) | – | 0.00188 µM (active) | 0.000174 µM (active) | 0.000192 µM (active) | 0.000167 µM (active) | – | 0.000296 µM (active)
4 | COC1CCN(N(C)C)O1 (stereo not given) | > 100 µM (inactive) | > 100 µM (inactive) | > 100 µM (inactive) | > 100 µM (inactive) | > 100 µM (inactive) | > 100 µM (inactive) | > 100 µM (inactive) | > 100 µM (inactive) | > 100 µM (inactive) | > 100 µM (inactive) | > 100 µM (inactive) | – | > 100 µM (inactive) | > 100 µM (inactive) | > 100 µM (inactive) | > 100 µM (inactive) | > 100 µM (inactive) | > 100 µM (inactive) | > 100 µM (inactive) | > 100 µM (inactive)
5 | C1COC2SC3=C(SC(=C4SC5=C(SCCS5)S4)S3)SC2O1 (stereo not given) | > 100 µM (inactive) | > 100 µM (inactive) | > 100 µM (inactive) | > 100 µM (inactive) | > 100 µM (inactive) | > 100 µM (inactive) | > 100 µM (inactive) | 77.6 µM (inactive) | 13 µM (inactive) | 68.7 µM (inactive) | > 100 µM (inactive) | – | > 100 µM (inactive) | > 100 µM (inactive) | > 100 µM (inactive) | > 100 µM (inactive) | > 100 µM (inactive) | > 100 µM (inactive) | 3.68 µM (inactive) | 73.1 µM (inactive)
6 | Cc1cc2c(cc1Cl)SC(NS(=O)(=O)c1ccc(Cl)cc1)=NS2(=O)=O | – | 47.4 µM (inactive) | 35.4 µM (inactive) | – | 33.5 µM (inactive) | > 100 µM (inactive) | 54 µM (inactive) | 89.5 µM (inactive) | – | 41.6 µM (inactive) | 56.8 µM (inactive) | – | > 100 µM (inactive) | 56.8 µM (inactive) | 30.4 µM (inactive) | > 100 µM (inactive) | 85.9 µM (inactive) | 42.7 µM (inactive) | 10.3 µM (inactive) | 41.9 µM (inactive)
7 | COC(=O)[C@H](Cc1c[nH]c2ccccc12)NP(=O)(O)OCC1C=CC(n2cc(C)c(=O)[nH]c2=O)O1 (stereo not given in full) | > 100 µM (inactive) | > 100 µM (inactive) | > 100 µM (inactive) | > 100 µM (inactive) | > 100 µM (inactive) | > 100 µM (inactive) | > 100 µM (inactive) | > 100 µM (inactive) | – | > 100 µM (inactive) | – | > 100 µM (inactive) | > 100 µM (inactive) | > 100 µM (inactive) | > 100 µM (inactive) | > 100 µM (inactive) | > 100 µM (inactive) | > 100 µM (inactive) | – | > 100 µM (inactive)

Source: ChEMBL document CHEMBL1201862, “PubChem BioAssay data set” (2004)
